Measured values published in doi:10.1101/2021.01.21.427670v1 (biorxiv, 2021).

Tests used:
α4β1δ GABAA receptor [1] = target: T1, α4β1δ GABAA receptor (Homo sapiens, UniProt P18505+P48169, P18505:I289Q); test: cell-based; parameters: species or system HEK293 Flp-In
α4β1δ GABAA receptor [2] = target: T2, α4β1δ GABAA receptor (Homo sapiens, UniProt P18505+P48169); test: cell-based; parameters: species or system HEK293 Flp-In
α4β1δ GABAA receptor [3] = target: T3, α4β1δ GABAA receptor (Homo sapiens, UniProt P18505+P48169, P48169:S303L); test: cell-based; parameters: species or system HEK293 Flp-In
α4β1δ GABAA receptor [4] = target: T1, α4β1δ GABAA receptor; test: FLIPR membrane potential; assay type: cell-based
α4β1δ GABAA receptor [5] = target: T3, α4β1δ GABAA receptor; test: FLIPR membrane potential; assay type: cell-based
α4β1δ GABAA receptor [6] = target: T2, α4β1δ GABAA receptor; test: FLIPR membrane potential; assay type: cell-based

T2 sequence (P48169 36-554): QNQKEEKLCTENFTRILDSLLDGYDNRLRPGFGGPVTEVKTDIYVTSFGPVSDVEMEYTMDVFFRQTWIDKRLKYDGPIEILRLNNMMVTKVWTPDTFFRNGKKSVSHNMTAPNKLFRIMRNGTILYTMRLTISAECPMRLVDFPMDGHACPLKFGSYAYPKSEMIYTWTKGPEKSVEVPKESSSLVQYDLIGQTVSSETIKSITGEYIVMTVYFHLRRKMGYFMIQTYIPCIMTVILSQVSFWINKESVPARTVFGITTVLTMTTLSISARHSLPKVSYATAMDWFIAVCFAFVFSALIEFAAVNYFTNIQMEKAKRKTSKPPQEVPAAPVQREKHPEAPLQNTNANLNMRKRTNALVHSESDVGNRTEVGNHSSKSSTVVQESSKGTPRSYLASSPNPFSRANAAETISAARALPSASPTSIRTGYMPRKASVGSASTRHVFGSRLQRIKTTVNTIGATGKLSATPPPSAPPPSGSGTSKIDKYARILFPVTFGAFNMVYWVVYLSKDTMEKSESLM
T2 sequence (P18505 26-474): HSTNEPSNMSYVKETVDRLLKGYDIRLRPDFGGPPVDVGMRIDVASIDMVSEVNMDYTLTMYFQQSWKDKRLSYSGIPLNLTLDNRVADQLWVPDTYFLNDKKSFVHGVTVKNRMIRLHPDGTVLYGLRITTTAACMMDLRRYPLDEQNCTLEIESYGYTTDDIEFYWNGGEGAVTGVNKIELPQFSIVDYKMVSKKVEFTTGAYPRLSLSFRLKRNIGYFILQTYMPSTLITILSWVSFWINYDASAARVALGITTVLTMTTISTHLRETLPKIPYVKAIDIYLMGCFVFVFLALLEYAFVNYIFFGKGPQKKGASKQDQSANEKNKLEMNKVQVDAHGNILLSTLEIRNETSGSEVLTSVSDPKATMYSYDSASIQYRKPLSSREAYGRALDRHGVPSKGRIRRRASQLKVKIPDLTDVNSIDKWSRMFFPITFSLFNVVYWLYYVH
T2 sequence (O14764 25-452 partner): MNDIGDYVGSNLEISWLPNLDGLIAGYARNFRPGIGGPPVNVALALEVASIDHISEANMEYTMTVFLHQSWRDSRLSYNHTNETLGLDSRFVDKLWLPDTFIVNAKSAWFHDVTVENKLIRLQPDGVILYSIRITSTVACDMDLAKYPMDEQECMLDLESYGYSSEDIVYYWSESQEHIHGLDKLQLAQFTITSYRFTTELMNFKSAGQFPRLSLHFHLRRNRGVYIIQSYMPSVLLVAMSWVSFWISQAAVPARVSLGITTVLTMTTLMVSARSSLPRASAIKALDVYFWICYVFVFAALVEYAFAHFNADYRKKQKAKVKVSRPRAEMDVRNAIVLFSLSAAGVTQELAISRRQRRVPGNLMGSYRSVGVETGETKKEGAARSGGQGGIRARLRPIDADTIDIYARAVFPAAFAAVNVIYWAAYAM
T1 sequence (P48169 36-554): as the sequence (P48169 36-554) above
T1 sequence (P18505 26-474 I289Q): as the sequence (P18505 26-474) above, with I264Q counted along it
T1 sequence (O14764 25-452 partner): as the sequence (O14764 25-452 partner) above
T3 sequence (P48169 36-554 S303L): as the sequence (P48169 36-554) above, with S268L counted along it
T3 sequence (P18505 26-474): as the sequence (P18505 26-474) above
T3 sequence (O14764 25-452 partner): as the sequence (O14764 25-452 partner) above

| Compound | EC50 (α4β1δ GABAA receptor [1]) [µM] | EC50 (α4β1δ GABAA receptor [2]) [µM] | EC50 (α4β1δ GABAA receptor [3]) [µM] | EC50 (α4β1δ GABAA receptor [4]) [µM] | EC50 (α4β1δ GABAA receptor [5]) [µM] | EC50 (α4β1δ GABAA receptor [6]) [µM] |
| --- | --- | --- | --- | --- | --- | --- |
| CCOC(=O)Nc1ccc(NCc2c(C)cc(C)cc2C)cc1N [AA29504, [2-amino-4-(2,4,6-trimethylbenzylamino)-phenyl]-carbamic acid ethyl ester] | 0.76 | 0.55 | 0.25 | – | – | – |
| CCOC(=O)c1cncn1[C@H](C)c1ccccc1 [etomidate, (R)-1-(1-phenylethyl)-1H-imidazole-5-carboxylic acid ethyl ester] | – | – | – | 9.3 | 6.2 | 7.8 |
